Consider five molecules from PMC12680861, “Comparative analysis of LJ-4378 and tirzepatide in mouse models of obesity and weight regain” (Archives of Pharmacal Research, 2025).

Each structure is given as a SMILES string. Where two headings read alike, the source gives them in different places.

The nature of data set [1]: Plasma protein binding, Rapid Equilibrium Dialysis (RED). Format: in vitro ADME, human. The following applies: human, plasma (100%, sodium citrate), pH 7.4, 37 °C, read-out: Plasma free fraction (% Free), Human. As for the experimental part: (§1) The plasma protein binding of LJ-4378 was evaluated using the Rapid Equilibrium Dialysis (RED) method with 100% plasma from human (Biochemed, BC22089NCP), rat (Innovative, IRT-N), and mouse (Biochemed, 029-APSC-MP), all treated with sodium citrate as an anticoagulant. The RED device (ThermoFisher Scientific, #89809) and reusable base plate (ThermoFisher Scientific, #89811) were used with an 8 K MWCO membrane. Test compounds were added to plasma at a final concentration of 10 μM and dialyzed against phosphate-buffered saline (PBS, pH 7.4; Hyclone, #SH30256.01) at 37 °C for 4 h. After incubation, equal volumes of plasma and PBS samples were mixed with blank PBS and blank plasma, respectively, followed by the addition of acetonitrile containing chlorpropamide (TRC, C424800) as the internal standard. […] All measurements were performed in duplicate with a deviation of less than 15% between replicates. The free fraction (% Free) was calculated as (concentration in buffer chamber/concentration in plasma chamber) × 100, and the bound fraction (% Bound) was obtained by subtracting % Free from 100. In cases where measurements were unstable, deviations greater than 15% were allowed.
On the technique in general: Equilibrium dialysis compares concentrations on both sides of a semipermeable membrane.

Assay in data set [2]: as above
Format: in vitro ADME, mouse. The following applies: mouse, plasma (100%, sodium citrate), pH 7.4, 37 °C, read-out: Plasma free fraction (% Free), Mouse. The protocol:
as §1

Assay in data set [3]: as above
Format: in vitro ADME, rat. The following applies: rat, plasma (100%, sodium citrate), pH 7.4, 37 °C, read-out: Plasma free fraction (% Free), Rat. As for the experimental part: as §1

The target of data set [4] is CYP2C19 (Homo sapiens, UniProt P33261). In words: CYP enzyme inhibition in pooled human liver microsomes (S-mephenytoin substrate). The following applies: human, pooled human liver microsomes, pH 7.4. As for the experimental part: (§2) Cytochrome 450 (CYP) enzyme inhibition was evaluated using pooled human liver microsomes (Corning, #452117). […] Substrates and corresponding metabolites for each CYP isoform were as follows: phenacetin and acetaminophen for CYP1A2 (Sigma Aldrich, #77440 and A7085, respectively), diclofenac and 4'-hydroxydiclofenac for CYP2C9 (Sigma Aldrich, D6899; TRC, H825225), S-mephenytoin and 4'-hydroxymephenytoin for CYP2C19 (Sigma Aldrich, UC175; Santacruz, sc210197), dextromethorphan and dextrorphan for CYP2D6 (Sigma Aldrich, #81091 and UC205), and midazolam and 1'-hydroxymidazolam for CYP3A4 (KFDA; Sigma Aldrich, UC430).
(§3) Samples were preincubated at 37 °C for 5 min, and the reaction was initiated by the addition of the NADPH regeneration system, followed by incubation at 37 °C for 15 min. The reaction was terminated by adding acetonitrile containing the internal standard, and centrifuged at 15,000 rpm for 5 min at 4 °C. The supernatant was analyzed by LC–MS/MS using a Nexera XR system (Shimadzu, Japan) coupled with a TSQ Vantage mass spectrometer (Thermo, USA). […] Metabolites were quantified in multiple reaction monitoring (MRM) mode with Xcalibur software (version 4.4).
(§4) All experiments were performed in duplicate with variability ≤ 15%. The percent activity of each CYP enzyme was calculated based on metabolite formation relative to the no-inhibitor control.
For orientation: Liver microsomes are a subcellular fraction often used to study metabolism.

Data set [5] deals with CYP2C9 (Homo sapiens, UniProt P11712). In words: CYP enzyme inhibition in pooled human liver microsomes (diclofenac substrate). The following applies: human, pooled human liver microsomes, pH 7.4. As for the experimental part: as §2, §3, §4
The target of data set [6] is T1, CYP1A2 (Homo sapiens, UniProt P05177).
T1 sequence (P05177 1-516): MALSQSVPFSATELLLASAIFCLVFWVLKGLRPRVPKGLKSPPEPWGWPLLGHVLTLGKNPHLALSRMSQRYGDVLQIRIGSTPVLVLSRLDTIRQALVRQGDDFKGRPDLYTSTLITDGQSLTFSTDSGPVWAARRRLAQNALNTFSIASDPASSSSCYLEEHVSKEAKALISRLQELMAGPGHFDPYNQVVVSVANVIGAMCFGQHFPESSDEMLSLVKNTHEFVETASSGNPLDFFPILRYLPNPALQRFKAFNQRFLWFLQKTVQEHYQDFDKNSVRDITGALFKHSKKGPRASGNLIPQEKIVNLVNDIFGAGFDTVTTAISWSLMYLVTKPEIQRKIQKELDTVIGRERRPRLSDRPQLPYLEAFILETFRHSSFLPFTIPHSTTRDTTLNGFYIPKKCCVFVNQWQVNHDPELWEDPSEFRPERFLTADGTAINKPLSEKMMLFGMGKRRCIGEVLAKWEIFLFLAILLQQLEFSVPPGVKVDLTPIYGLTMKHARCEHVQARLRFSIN
In words: CYP enzyme inhibition in pooled human liver microsomes (phenacetin substrate). Particulars: human, pooled human liver microsomes, pH 7.4. The protocol:
as §2, §3, §4

Data set [7] is described as follows: Plasma stability assay. It counts as in vitro ADME, human. The following applies: human, plasma (100%, sodium citrate), 37 °C. The protocol: (§5) The plasma stability of LJ-4378 was evaluated using 100% plasma obtained from human (Biochemed, BC22089NCP, sodium citrate), rat (Innovative, IRT-N, sodium citrate), and mouse (Biochemed, 029-APSC-MP, sodium citrate). 10 Μm of LJ-4378 was added to the plasma, and samples were incubated at 37 °C for 0, 30, and 120 min. At each time point, an aliquot of the plasma was removed and mixed with acetonitrile containing the internal standard, chlorpropamide (TRC, C424800). […] The supernatant was injected into the LC–MS/MS system for quantification of the remaining compound. Analysis was performed using a Nexera XR system (Shimadzu, Japan) with a TSQ Vantage mass spectrometer (Thermo, USA). […] Data acquisition was conducted in MRM mode using Xcalibur software (version 4.4). All experiments were performed in duplicate with a deviation within 15%, and the percentage of compound remaining (% Remaining) at each time point was calculated relative to the non-incubated control sample. For quality control, procaine and enalapril (each at 10 μM) were used as reference compounds and were confirmed to fall within acceptable ranges.

Data set [8] in a line: Plasma stability assay. Particulars: rat, plasma (100%, sodium citrate), 37 °C; for remaining at 0.5 h, 10 μM: 30 min, read-out: % Remaining compound, Rat plasma 30 min; for remaining at 2 h, 10 μM: 120 min, read-out: % Remaining compound, Rat plasma 120 min. It counts as in vitro ADME, rat. As for the experimental part:
as §5

A short description of data set [9]: Plasma stability assay. It counts as in vitro ADME, mouse. The following applies: mouse, plasma (100%, sodium citrate), 37 °C; for remaining at 0.5 h, 10 μM: 30 min, read-out: % Remaining compound, Mouse plasma 30 min; for remaining at 2 h, 10 μM: 120 min, read-out: % Remaining compound, Mouse plasma 120 min. As for the experimental part:
as §5

CYP2C19, sequence (P33261 whole entry, canonical isoform): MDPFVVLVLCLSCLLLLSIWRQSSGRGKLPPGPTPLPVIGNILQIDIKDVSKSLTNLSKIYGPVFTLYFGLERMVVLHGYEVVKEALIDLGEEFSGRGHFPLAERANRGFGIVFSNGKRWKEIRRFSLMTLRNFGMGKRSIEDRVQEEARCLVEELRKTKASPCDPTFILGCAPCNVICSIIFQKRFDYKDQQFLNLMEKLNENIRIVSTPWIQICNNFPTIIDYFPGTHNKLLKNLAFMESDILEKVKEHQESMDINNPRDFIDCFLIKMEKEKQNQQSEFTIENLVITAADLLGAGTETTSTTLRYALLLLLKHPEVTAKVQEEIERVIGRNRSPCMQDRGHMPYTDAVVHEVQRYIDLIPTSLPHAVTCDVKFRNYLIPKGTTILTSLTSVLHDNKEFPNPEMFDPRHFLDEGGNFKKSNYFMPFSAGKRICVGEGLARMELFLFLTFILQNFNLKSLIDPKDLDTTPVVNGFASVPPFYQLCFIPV
CYP2C9, sequence (P11712 whole entry): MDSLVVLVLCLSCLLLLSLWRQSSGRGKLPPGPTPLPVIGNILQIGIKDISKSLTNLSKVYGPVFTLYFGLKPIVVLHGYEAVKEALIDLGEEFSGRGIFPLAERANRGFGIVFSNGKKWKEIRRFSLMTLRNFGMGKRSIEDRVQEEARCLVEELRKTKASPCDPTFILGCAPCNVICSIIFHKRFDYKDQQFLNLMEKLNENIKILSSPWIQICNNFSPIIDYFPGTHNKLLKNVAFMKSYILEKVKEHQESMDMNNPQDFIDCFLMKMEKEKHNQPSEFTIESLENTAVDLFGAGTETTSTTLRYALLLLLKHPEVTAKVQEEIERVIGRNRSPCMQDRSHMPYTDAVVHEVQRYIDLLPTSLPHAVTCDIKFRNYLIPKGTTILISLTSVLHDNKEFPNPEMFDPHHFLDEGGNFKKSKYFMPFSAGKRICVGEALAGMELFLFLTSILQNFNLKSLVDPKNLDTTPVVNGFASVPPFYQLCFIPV

Turning to `C[C@@H]1C[C@H]2[C@@H]3CCC4=CC(=O)C=C[C@]4(C)[C@@]3(F)[C@@H](O)C[C@]2(C)[C@@]1(O)C(=O)CO` [Dexamethasone], the fraction unbound at 4 h, 10 μM in [1] came out at 0.359; in data set [2], 0.297; in data set [3], 0.222.

With `CC(=O)N1CCN(c2ccc(OCC3COC(Cn4ccnc4)(c4ccc(Cl)cc4Cl)O3)cc2)CC1` (stereo not drawn) [Ketoconazole, ketoconazole, reference compound], the activity at 15 min, 10 µM in data set [4] was above 100%; in data set [5], 98%; in data set [6], 98.3%.

For `CCN(CC)CCOC(=O)c1ccc(N)cc1` [Procaine, procaine], the amount remaining at 5 min, 10 μM in data set [7] (5 min (printed in the 30 min column), read-out: % Remaining compound, Human plasma 5 min) worked out at 1.2%. In addition, the share remaining at 10 min, 10 μM in data set [7] (10 min (printed in the 120 min column), read-out: % Remaining compound, Human plasma 10 min) was below 1%. Moreover, in data set [8], the share remaining at 0.5 h, 10 μM came to 85.2% and the fraction remaining at 2 h, 10 μM was found to be 45.2%. Also, in data set [9], the fraction remaining at 0.5 h, 10 μM stood at 7% and the share remaining at 2 h, 10 μM is below 1%.

Consider `CC(=O)CC(c1ccccc1)c1c(O)c2ccccc2oc1=O` (stereo not drawn) [Warfarin], for which the fraction unbound at 4 h, 10 μM in data set [1] was found to be 0.006; in data set [2] it was 0.062; in data set [3], 0.01.

For the molecule `CCOC(=O)[C@H](CCc1ccccc1)N[C@@H](C)C(=O)N1CCC[C@H]1C(=O)O` [Enalapril, enalapril], the amount remaining at 0.5 h, 10 μM is above 100% in [7] (30 min, read-out: % Remaining compound, Human plasma 30 min); 34.5% in [8]; 66% in data set [9]. Moreover, the share remaining at 2 h, 10 μM came out at 95.9% in [7] (120 min, read-out: % Remaining compound, Human plasma 120 min); 1.4% in data set [8]; 26.3% in [9].

In general, fraction remaining refers to the share of the starting amount still present when the sample was taken.
